Data from patent publication US20260356851A1, “TRICYCLIC COMPOUNDS AND USES THEREOF” (HUTCHMED LIMITED, priority 2023, published 2026).
Read-outs that look alike come from different tables or passages of the source.

How the values were obtained:
Type in all cases: cell-based
[1] = biological target: T1, pERK1/2 (Thr202/Tyr204), PANC-1 (KRAS G121D) (Homo sapiens, UniProt P01116, G12D); assay: Assay of intracellular pERK1/2 (Thr202/Tyr204) phosphorylation in PANC-1 cells (KRAS G12D)
T1 construct: pERK1/2 HTRF read-out
Outline: (§1)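 HTRF detection of Thr202/Tyr204-phosphorylated ERK1/2 (665/615 nm ratio) in lysates from cells treated 2 days with serially 3-fold diluted compound.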

[2] = biological target: T2, pERK1/2 (Thr202/Tyr204), NCI-1H441 (KRAS G12V) (Homo sapiens, UniProt P01116, G12V); assay: Assay of intracellular pERK1/2 (Thr202/Tyr204) phosphorylation in NCI-H441 cells (KRAS G12V)
T2 construct: pERK1/2 HTRF read-out
Outline: as §1

[3] = biological target: T3, pERK1/2 (Thr202/Tyr204), NCI-1H358 (KRAS G12C) (Homo sapiens, UniProt P01116, G12C); assay: Assay of intracellular pERK1/2 (Thr202/Tyr204) phosphorylation in NCI-H358 cells (KRAS G12C)
T3 construct: pERK1/2 HTRF read-out
Outline: as §1

[4] = pERK1/2, 2 days, read-out: PANC-1 (KRAS G12D) IC50
[5] = pERK1/2, 2 days, read-out: NCI-H441 (KRAS G12V) IC50
[6] = pERK1/2, 2 days, read-out: NCI-H358 (KRAS G12C) IC50

T3 sequence (P01116 1-188 isoform P01116-2 G12C): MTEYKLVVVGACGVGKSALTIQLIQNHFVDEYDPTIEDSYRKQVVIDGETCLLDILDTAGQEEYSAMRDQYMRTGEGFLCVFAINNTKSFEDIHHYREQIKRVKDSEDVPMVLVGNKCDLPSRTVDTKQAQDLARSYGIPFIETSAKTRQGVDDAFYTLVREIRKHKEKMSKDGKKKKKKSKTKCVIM
T2 sequence (P01116 1-188 isoform P01116-2 G12V): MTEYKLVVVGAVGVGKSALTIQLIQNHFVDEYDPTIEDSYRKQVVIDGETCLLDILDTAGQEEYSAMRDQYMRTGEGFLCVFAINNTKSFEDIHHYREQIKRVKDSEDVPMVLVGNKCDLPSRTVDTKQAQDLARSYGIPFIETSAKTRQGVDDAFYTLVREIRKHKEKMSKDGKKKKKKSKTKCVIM
T1 sequence (P01116 1-188 isoform P01116-2 G12D): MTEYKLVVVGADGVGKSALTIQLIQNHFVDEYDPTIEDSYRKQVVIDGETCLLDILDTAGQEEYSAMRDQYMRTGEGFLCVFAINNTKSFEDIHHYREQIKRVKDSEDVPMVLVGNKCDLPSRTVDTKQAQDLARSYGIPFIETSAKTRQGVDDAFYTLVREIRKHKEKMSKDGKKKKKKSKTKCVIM

SMILES | IC50 [1, 4] | IC50 [2, 5] | IC50 [3, 6] | IC50 ([1]; read-out: PANC-1 (KRAS G12D) IC50, pERK1/2, 2 days) | IC50 ([2]; read-out: NCI-H441 (KRAS G12V) IC50, pERK1/2, 2 days) | IC50 ([3]; read-out: NCI-H358 (KRAS G12C) IC50, pERK1/2, 2 days)
Cc1cc(N)cc(-c2nc3c4c(nc(OC[C@]56CCCN5[C@@H](CO)CC6)nc4c2F)N(C(C)c2cccnc2N)CCO3)c1C(F)(F)F (single isomer, unassigned) [Compound 101, ((3R,7aR)-7a-(((5-(5-amino-3-methyl-2-(trifluoromethyl)phenyl)-10-((R or S)-1-(2-aminopyridin-3-yl)ethyl)-4-fluoro-9,10-dihydro-8H-7-oxa-1,3,6,10-tetraazacyclohepta[de]naphthalen-2-yl)oxy)methyl)hexahydro-1H-pyrrolizin-3-yl)methanol] | > 100 nM | > 100 nM | > 100 nM |  |  | 
CSc1nc2c3c(nc(-c4cc(O)cc5ccc(F)c(F)c45)c(F)c3n1)OCCN2C(C)c1cccnc1N (stereo not drawn) [Compound 33] | > 1000 nM | 121 nM | 193 nM |  |  | 
Cc1cc(N)cc(-c2nc3c4c(nc(OC[C@H]5CCCN5CCF)nc4c2F)N(C(C)c2cccnc2N)CCO3)c1C(F)(F)F (single isomer, unassigned) [Compound 78, 3-((R or S)-1-(5-(5-amino-3-methyl-2-(trifluoromethyl)phenyl)-4-fluoro-2-(((R)-1-(2-fluoroethyl)pyrrolidin-2-yl)methoxy)-8,9-dihydro-10H-7-oxa-1,3,6,10-tetraazacyclohepta[de]naphthalen-10-yl)ethyl)pyridin-2-amine] | 42 nM | 3 nM | 2 nM |  |  | 
Cc1ccc2[nH]ncc2c1-c1nc2c3c(nc(OC[C@@]45CCCN4C[C@H](F)C5)nc3c1F)N(C(C)c1cccnc1N)[C@@H](C)CO2 (stereo partly drawn) [Compound 318] | 37 nM | 7 nM | 1 nM |  |  | 
Cc1c(F)c(N)cc(-c2nc3c4c(nc(OC[C@@]56CCCN5C[C@@H](F)C6)nc4c2F)N(C(C)c2cccnc2N)CCO3)c1C(F)(F)F (stereo partly drawn) [Compound 165] | 47 nM | 3 nM | 1 nM |  |  | 
[2H]C1([2H])CC[C@@]2(C([2H])([2H])Oc3nc4c5c(nc(-c6cc(N)cc(C)c6C(F)(F)F)c(F)c5n3)OCCN4C(C)c3cccnc3N)C[C@@H](F)CN12 (single isomer, unassigned) [Compound 116, 3-((R or S)-1-(5-(5-amino-3-methyl-2-(trifluoromethyl)phenyl)-4-fluoro-2-(((2R,7aS)-2-fluorotetrahydro-1H-pyrrolizin-7a(5H)-yl-5,5-d2)methoxy-d2)-8,9-dihydro-10H-7-oxa-1,3,6,10-tetraazacyclohepta[de]naphthalen-10-yl)ethyl)pyridin-2-amine] | 23 nM | 9 nM | 4 nM |  |  | 
CC(c1cccnc1N)N1CCOc2nc(-c3cc(N)cc(F)c3C(F)(F)F)c(F)c3nc(OC[C@@H]4CCCN4C)nc1c23 (single isomer, unassigned) [Compound 91, 3-((R or S)-1-(5-(5-amino-3-fluoro-2-(trifluoromethyl)phenyl)-4-fluoro-2-(((S)-1-methylpyrrolidin-2-yl)methoxy)-8,9-dihydro-10H-7-oxa-1,3,6,10-tetraazacyclohepta[de]naphthalen-10-yl)ethyl)pyridin-2-amine] | > 100 nM | > 100 nM | > 100 nM |  |  | 
[2H]C1([2H])CC[C@@]2(COc3nc4c5c(nc(-c6cc(N)c(F)c(Cl)c6C(F)(F)F)c(F)c5n3)OCCN4C(C)c3cccnc3N)C[C@@H](F)CN12 (stereo partly drawn) [Compound 221] | 2 nM | 0.4 nM | 0.1 nM |  |  | 
CC(c1cccnc1N)N1CCOc2nc(-c3cc(N)cc(F)c3C(F)(F)F)c(F)c3nc(OC[C@@]45CCCN4C[C@H](F)C5)nc1c23 (single isomer, unassigned) [Compound 88, 3-((R or S)-1-(5-(5-amino-3-fluoro-2-(trifluoromethyl)phenyl)-4-fluoro-2-(((2R,7aS)-2-fluorotetrahydro-1H-pyrrolizin-7a(5H)-yl)methoxy)-8,9-dihydro-10H-7-oxa-1,3,6,10-tetraazacyclohepta[de]naphthalen-10-yl)ethyl)pyridin-2-amine] | 3 nM | 1 nM | 0.4 nM |  |  | 
Cc1cc(N)cc(-c2nc3c4c(nc(OC[C@@H]5CCCN5C5COC5)nc4c2F)N(C(C)c2cccnc2N)CCO3)c1C(F)(F)F (stereo partly drawn) [Compound 123] | > 100 nM | 4 nM | 2 nM |  |  | 
Cc1n[nH]c2cc3ccccc3c(-c3cc4nc(OC[C@@]56CCCN5C[C@H](F)C6)nc5c4c(n3)OC[C@H](C)N5C(C)c3cccnc3N)c12 (stereo partly drawn) [Compound 402] | 0.4 nM | 0.6 nM | 0.4 nM |  |  | 
Cc1cc(N)cc(-c2nc3c4c(nc(OCC5CCOCC5)nc4c2F)N(C(C)c2cccnc2N)CCO3)c1C(F)(F)F (single isomer, unassigned) [Compound 117, (R or S)-3-(1-(5-(5-amino-3-methyl-2-(trifluoromethyl)phenyl)-4-fluoro-2-((tetrahydro-2H-pyran-4-yl)methoxy)-8,9-dihydro-10H-7-oxa-1,3,6,10-tetraazacyclohepta[de]naphthalen-10-yl)ethyl)pyridin-2-amine] | > 100 nM | 36 nM | 26 nM |  |  | 
Cc1cc2[nH]ncc2c(-c2nc3c4c(nc(OC[C@@]56CCCN5C[C@H](F)C6)nc4c2F)N(C(C)c2cccnc2N)[C@H]2CCC[C@H]2O3)c1C(F)(F)F (stereo partly drawn) [Compound 389] | > 100 nM | > 100 nM | 60 nM |  |  | 
CC(c1cccnc1N)N1c2nc(OC[C@@]34CCCN3C[C@H](F)C4)nc3c(F)c(-c4c5ccccc5cc5[nH]ncc45)nc(c23)O[C@H]2CCC[C@@H]21 (stereo partly drawn) [Compound 398] | 264 nM | 472 nM | 212 nM |  |  | 
CCNC(=O)Oc1cc(-c2nc3c4c(nc(OC[C@@]56CCCN5C[C@H](F)C6)nc4c2F)N(C(C)c2cccnc2N)[C@@H](C)CO3)c2c(CC)c(F)ccc2c1 (stereo partly drawn) [Compound 294] |  |  |  | 0.5 nM | 2 nM | 0.8 nM
CC(c1cccnc1N)N1c2nc(OC[C@@]34CCCN3C[C@H](F)C4)nc3c(F)c(-c4c5cn[nH]c5cc5ccc(F)c(F)c45)nc(c23)OC[C@@H]1C (stereo partly drawn) [Compound 369] | 0.4 nM | 0.2 nM | 0.2 nM |  |  | 
CCc1c(F)ccc2cc(O)cc(-c3nc4c5c(nc(OC[C@@]67CCCN6C[C@H](F)C7)nc5c3F)N(C(C)c3cccnc3N)[C@@H](C)CO4)c12 (single isomer, unassigned) [Compound 280, 4-((S)-10-((R or S)-1-(2-aminopyridin-3-yl)ethyl)-4-fluoro-2-(((2R,7aS)-2-fluorotetrahydro-1H-pyrrolizin-7a(5H)-yl)methoxy)-9-methyl-9,10-dihydro-8H-7-oxa-1,3,6,10-tetraazacyclohepta[de]naphthalen-5-yl)-5-ethyl-6-fluoronaphthalen-2-ol] | 5 nM | 11 nM | 6 nM |  |  | 
Cc1cc(N)cc(-c2nc3c4c(nc(OC[C@@]56CCCN5C[C@H](F)C6)nc4c2F)N(C(C)c2cccnc2N)CCO3)c1C(F)(F)F (single isomer, unassigned) [Compound 62, 3-((R or S)-1-(5-(5-amino-3-methyl-2-(trifluoromethyl)phenyl)-4-fluoro-2-(((2R,7aS)-2-fluorotetrahydro-1H-pyrrolizin-7a(5H)-yl)methoxy)-8,9-dihydro-10H-7-oxa-1,3,6,10-tetraazacyclohepta[de]naphthalen-10-yl)ethyl)pyridin-2-amine] | 55 nM | 9 nM | 8 nM |  |  | 
